{
  "source": "patent US20070250942A1",
  "about": "“Non-human transgenic mammals useful for identifying and assessing neural stem/progenitor cells” (Cold Spring Harbor Laboratory, priority 2006, published 2007)",
  "key": {"adult dentate gyrus": {"tested_on": "adult dentate gyrus", "assay": "Fluoxetine effect on neuronal precursor classes in the adult dentate gyrus of nestin-CFPnuc mice (confocal stereology, BrdU labeling)", "assay_type": "in vivo, mouse", "method": "(§1) Immunohistochemistry. Tissues were fixed by transcardial perfusion with 30 ml of 4% (w/v) paraformaldehyde in PBS, pH 7.4. The brains were removed, cut longitudinally into two hemispheres and postfixed for 3 hrs at room temperature, then transferred to PBS and kept at 4° C. Serial sagittal sections, 50-μm thick, were cut with a Vibratome 1500 (Vibratome, St. Louis, Mo.). Immunostaining was carried following the standard procedure. The sections were incubated with primary antibodies to the target protein (see the list below) at 4° C. in PBS containing 0.2% Triton-100X and 3% BSA. After thorough washing with PBS, appropriate secondary antibodies (see the list below) were incubated in the same solution for 1 hr at room temperature. After washing with PBS, the sections were mounted on gelatine coated slides with DakoCytomation Fluorescent Mounting Medium (DakoCytomation, Carpinteria, Calif.). For the analysis of 5-bromo-2-deoxyuridine (BrdU) incorporation, sections were treated with 2M HCl for 30 min at 55° C., washed with PBS, treated with 1 mM sodium tetraborate for 10 min at room temperature, and finally washed with PBS. The following antibodies were used: chicken anti-GFP (Aves Laboratories, Tigard, Oreg.) 1:500; guinea pig anti-GFAP (Advanced Immunochemicals, Long Beach, Calif.) 1:500; mouse anti-nestin (Chemicon International, Temecula, Calif.) 1:100; mouse anti-NeuN (Chemicon) 1:800; rabbit anti Dcx (generous gift from Dr. C. A. Walsh, Harvard Medical School) 1:2500; rabbit anti-Prox I (generous gift from Dr. S. J. Pleasure, UCSF) 1:2000; rat anti-BrdU (Serotec, Raleigh, N.C.) 1:400; mouse anti-PSA-NCAM (Chemicon) 1:400; AlexaFluor 488 goat anti-chicken (Molecular Probes, Willow Creek Road, Eugene, Oreg.) 1:500; AlexaFluor 594 goat anti-mouse (Molecular Probes) 1:500; AlexaFluor 568 goat anti-rat (Molecular Probes) 1:500; Cy5 goat anti-guinea pig (Jackson Immunoresearch, West Grove, Pa.) 1:500; Cy5 goat anti-rabbit (Jackson Immunoresearch) 1:500; Texas Red donkey anti-chicken (Jackson Immunoresearch) 1:500.\n(§2) Quantification. Quantitative analysis of cell populations was performed by means of design-based (assumption free, unbiased) stereology. Slices were collected using systematic-random sampling. One brain hemisphere was randomly selected per animal. The hemisphere was sliced sagittaly, in a lateral-to-medial direction, from the beginning until the end of the lateral ventricle, thus including the whole DG. The 50 μm slices, obtained with a 1500 Vibratome (Vibratome, St. Louis, Mo.), were collected in 6 parallel sets (5 in the case of the juvenile mice), each set consisting of 12 slices, each slice 300 μm apart from the next.\n(§3) For counts in the DG, all the cells of each type described were counted in every slice, excluding those in the uppermost focal plane. The volume of the reference space (of the granule cell layer (GCL)+the subgranular zone (SGZ)) was calculated by the Cavalieri-point method. In the subventricular zone (SVZ), for BrdU counts, all the BrdU stained cells were counted in each slice, excluding those in the uppermost focal plane. For nestin-CFP cells, the two-stage approach was used. At least 10 optical disectors (20×20×20 μm), placed following a systematic-random manner, were applied on each slice. Then the volume of the space reference (of the SVZ) was estimated using the Cavalieri-point method.\n(§4) All the imaging and quantification procedures were performed using a Zeiss LSM 510 confocal microscope and its software. Statistical analysis and graphs of the numeric data were obtained using SigmaPlot software (SYSTAT, Port Richmond, Calif.) and JMP (SAS Institute Inc., Cary, N.C.).\n(§5) On the last day a single injection of BrdU, 150 mg/kg was also administered. […] On the last day they were also given a single injection of BrdU, 150 mg/kg. In both sets of experiments, animals were sacrificed either 24 h or 30 days after the end of the treatment and the BrdU injection."}, "[1]": {"tested_on": "subventricular zone (SVZ)", "assay": "Fluoxetine effect on neurogenesis in the subventricular zone of adult nestin-CFPnuc mice", "assay_type": "in vivo, mouse", "conditions": "15 days treatment", "method": "as §1, §2, §3\nAll the imaging and quantification procedures were performed using a Zeiss LSM 510 confocal microscope and its software. […]"}, "juvenile dentate gyrus": {"tested_on": "juvenile dentate gyrus", "assay": "Fluoxetine effect on neuronal precursor classes in the juvenile dentate gyrus of nestin-CFPnuc mice", "assay_type": "in vivo, mouse", "method": "as §1, §2\nIn the young animals, all the BrdU cells were counted in each slice, excluding those in the uppermost focal plane. The number of nestin-CFPnuc stained cells, the QNPs, and the ANPs, was estimated using the two-stage approach. At least 5 optical dissectors (20×20×20 μm) placed in a systematic-random manner, were applied to each slice. Then the volume of the space reference (of the SGZ) was estimated using the Cavalieri-point method.\nas §4, §5\nThe action of fluoxetine on stem/progenitor cells was investigated for similarity in both the juvenile and adult brain. […] In the DG of treated juvenile mice, precursor cells can be divided into the same categories as the cells in the adult brain (note that the animals are 20 or 49 days old at the time of analysis). […]"}, "[2]": {"tested_on": "dentate gyrus (DG) of the adult brain", "conditions": "cited from earlier work"}, "[3]": {"conditions": "exposure of newborn (p4) mice; cited from earlier work"}, "[4]": {"conditions": "adult, 15 days treatment, 24 h, mean±SEM, n=8"}, "[5]": {"conditions": "adult, 15 days treatment, 24 h, n=6"}, "[6]": {"conditions": "adult, 15 days treatment, 24 h, vs vehicle"}, "[7]": {"conditions": "adult, 15 days treatment, 1 day after BrdU, n=8"}, "[8]": {"conditions": "adult, 15 days treatment, sacrificed 30 days later, n=6"}, "[9]": {"conditions": "15 days from p5, 1 day, vs vehicle"}, "[10]": {"conditions": "30 days after end of administration, n=5"}},
  "note": "Where a name gives a salt, the structure may show the parent alone.",
  "data": [
    {"smiles": "CNCCC(Oc1ccc(C(F)(F)F)cc1)c1ccccc1", "note": "(stereo not shown) [fluoxetine, fluoxetine hydrochloride]", "values": [
      {"measurement": "increase in number of BrdU-labeled cells in the DG", "setting": "adult dentate gyrus; 7-month old mice, 10 mg/kg once per day for 15 days, 24 h after BrdU, vs vehicle", "value": 40.9, "unit": "%"},
      {"measurement": "number of BrdU-labeled cells in the DG", "setting": "adult dentate gyrus; adult, 10 mg/kg/day 15 days, 24 h after BrdU, mean±SEM, n=8", "value": "758±58"},
      {"measurement": "change in Dcx-positive cells (compared with PSA-NCAM-positive cells)", "setting": "adult dentate gyrus; adult, 15 days treatment, 24 h", "value": "Identical changes"},
      {"measurement": "number of ANP cells", "setting": "adult dentate gyrus; [4]", "value": "5745±506"},
      {"measurement": "number of QNP cells", "setting": "adult dentate gyrus; [4]", "value": "4675±518"},
      {"measurement": "number of BrdU-labeled ANPs", "setting": "adult dentate gyrus; [5]", "value": "410±33"},
      {"measurement": "number of BrdU-labeled QNPs", "setting": "adult dentate gyrus; [5]", "value": "90±16"},
      {"measurement": "number of PSA-NCAM-positive cells (NB1, NB2 and IN)", "setting": "adult dentate gyrus; adult, 15 days treatment, 24 h, n=8", "value": "11298±719"},
      {"measurement": "change in number of BrdU-labeled QNPs", "setting": "adult dentate gyrus; [6]", "value": "not affected"},
      {"measurement": "change in number of QNP cells", "setting": "adult dentate gyrus; [6]", "value": "no change"},
      {"measurement": "fraction of dividing cells among ANPs", "setting": "adult dentate gyrus; [6]", "value": "did not change"},
      {"measurement": "fraction of dividing cells among QNPs", "setting": "adult dentate gyrus; [6]", "value": "did not change"},
      {"measurement": "increase in number of ANP cells", "setting": "adult dentate gyrus; [6]", "value": 49.6, "unit": "%"},
      {"measurement": "increase in number of BrdU-labeled ANPs", "setting": "adult dentate gyrus; [6]", "value": 46.4, "unit": "%"},
      {"measurement": "increase in number of CFPnuc-positive cells (QNPs and ANPs together)", "setting": "adult dentate gyrus; [6]", "value": 24.7, "unit": "%"},
      {"measurement": "increase in number of PSA-NCAM-positive cells (NB1, NB2 and IN)", "setting": "adult dentate gyrus; [6]", "value": "26.5±7.2", "unit": "%"},
      {"measurement": "number of IN cells", "setting": "adult dentate gyrus; [7]", "value": "858±88"},
      {"measurement": "number of NB1 cells", "setting": "adult dentate gyrus; [7]", "value": "6988±538"},
      {"measurement": "number of NB2 cells", "setting": "adult dentate gyrus; [7]", "value": "3452±413"},
      {"measurement": "increase in number of NB1 cells", "setting": "adult dentate gyrus; adult, 15 days treatment, 1 day after BrdU, vs vehicle", "value": 42.1, "unit": "%"},
      {"measurement": "fraction of BrdU+NeuN+ cells among total BrdU-positive cells", "setting": "adult dentate gyrus; adult, 15 days treatment, sacrificed 30 days later", "value": "92.8±1.6", "unit": "%"},
      {"measurement": "number of BrdU-labeled NeuN-positive neurons", "setting": "adult dentate gyrus; [8]", "value": "316±29"},
      {"measurement": "number of BrdU-labeled cells in the DG", "setting": "adult dentate gyrus; [8]", "value": "342±24"},
      {"measurement": "increase in number of BrdU-labeled cells in the DG", "setting": "adult dentate gyrus; adult, 15 days treatment, sacrificed 30 days later, vs vehicle", "value": 46.2, "unit": "%"},
      {"measurement": "number of BrdU-labeled cells in the SVZ", "setting": "[1]", "value": "9550±769"},
      {"measurement": "number of nestin-CFPnuc cells in the SVZ", "setting": "[1]", "value": "473±55 ×10^3"},
      {"measurement": "volume of the SVZ", "setting": "[1]; in mm³", "value": "0.603±0.051"},
      {"measurement": "change in number of BrdU-labeled cells in the SVZ", "setting": "[1]; vs vehicle", "value": "No changes"},
      {"measurement": "change in number of nestin-CFPnuc cells, their density and volume of the SVZ", "setting": "[1]; vs vehicle", "value": "no significant changes"},
      {"measurement": "number of ANPs", "setting": "juvenile dentate gyrus; 15 days from p5, 1 day", "value": "16972±1872"},
      {"measurement": "number of QNPs", "setting": "juvenile dentate gyrus; 15 days from p5, 1 day", "value": "42048±4328"},
      {"measurement": "number of dividing (BrdU-labeled) ANP cells", "setting": "juvenile dentate gyrus; 15 days from p5, 1 day", "value": "1698±184"},
      {"measurement": "number of dividing (BrdU-labeled) QNP cells", "setting": "juvenile dentate gyrus; 15 days from p5, 1 day", "value": "2021±434"},
      {"measurement": "number of nestin-CFPnuc cells", "setting": "juvenile dentate gyrus; 15 days from p5, 1 day", "value": "61256±4970"},
      {"measurement": "number of BrdU-positive cells in the DG", "setting": "juvenile dentate gyrus; 15 days from p5, 1 day after BrdU", "value": "9796±834"},
      {"measurement": "change in number of dividing (BrdU-labeled) QNP cells (not statistically significant)", "setting": "juvenile dentate gyrus; [9]", "value": 28.7, "unit": "%"},
      {"measurement": "fraction of BrdU+NeuN+ cells among total BrdU-positive cells (FIG. 7K BrdU-labeled QNP, FIG. 7L BrdU-labeled ANP)", "setting": "juvenile dentate gyrus; [9]", "value": "did not change"},
      {"measurement": "increase in number of ANPs", "setting": "juvenile dentate gyrus; [9]", "value": 52.6, "unit": "%"},
      {"measurement": "increase in number of dividing (BrdU-labeled) ANP cells", "setting": "juvenile dentate gyrus; [9]", "value": 67.7, "unit": "%"},
      {"measurement": "increase in number of nestin-CFPnuc cells", "setting": "juvenile dentate gyrus; [9]", "value": 35.6, "unit": "%"},
      {"measurement": "change in number of QNPs (did not reach statistical significance)", "setting": "juvenile dentate gyrus; 15 days from p5, 1 day, vs vehicle, p=0.134", "value": 23.5, "unit": "%"},
      {"measurement": "increase in number of BrdU-positive cells in the DG", "setting": "juvenile dentate gyrus; 15 days from p5, 30 days after end of administration, vs vehicle", "value": 42.2, "unit": "%"},
      {"measurement": "increase in number of BrdU-positive cells in the DG", "setting": "juvenile dentate gyrus; 15 days treatment from p5, 1 day after BrdU, vs vehicle", "value": 36.3, "unit": "%"},
      {"measurement": "fraction of BrdU- and NeuN-double-positive cells among total BrdU-positive cells", "setting": "juvenile dentate gyrus; 30 days after end of administration", "value": 93.6, "unit": "%"},
      {"measurement": "number of BrdU- and NeuN-double-positive cells", "setting": "juvenile dentate gyrus; [10]", "value": "1892±119"},
      {"measurement": "number of BrdU-positive cells in the DG", "setting": "juvenile dentate gyrus; [10]", "value": "2026±153"},
      {"measurement": "increase in number of BrdU- and NeuN-double-positive cells", "setting": "juvenile dentate gyrus; 30 days after end of administration, vs vehicle", "value": 42.3, "unit": "%"},
      {"measurement": "generation of new neurons in the dentate gyrus", "setting": "[2]", "value": "increases generation of new neurons"},
      {"measurement": "anxiety when animals become adults", "setting": "[3]", "value": "elevated anxiety"}
    ]}
  ]
}
